Data taken from article PMC4660582, “Cyclic thrombospondin-1 mimetics: grafting of a thrombospondin sequence into circular disulfide-rich frameworks to inhibit endothelial cell migration” (Bioscience Reports, 2015).
Where a SMILES comes first, the peptide text is derived from it. Bridges are numbered along the chain shown (N, C = ends). [ ]: non-standard residue; d: D form.

Legend:
[1] = Stability assay in human serum; assay type: in vitro ADME; conditions: initial 300 μM; for remaining at 24 h, 300 μM: male, human, human serum, over a 24-h period, read-out: peptide remained in human serum
Description: All peptides were tested on human serum from male AB plasma (Sigma–Aldrich) at an initial concentration of 300 μM. Peptide incubation time points were 0, 2, 4, 8, 16 and 24 h. Samples were prepared according to previously described methods. Briefly, 90 μL of supernatant was taken at each time point and chromatographed on a 0.3 mL/min Phenomenex column using a linear 1%/min gradient of 0–50% solvent B on an analytical reverse-phase HPLC (Agilent). The elution times for all peptides were determined by the serum control at 0 h. The stability of each peptide for each time point was calculated as the height of the serum-treated peptide peak at 215 nm as percentage of the height of the 0-h serum-treated control. Experiments were done in triplicate.

[2] = test system: matriptase over-expressed PC-3 cell line; set-up: method as in PMID 24696092; conditions: cited from earlier work
[3] = test system: HT-29 (colon cancer cells); assay: Cell proliferation assay (MTT, 72 h); assay type: cell-based; conditions: 72-h period
Description: (§1) All cells were maintained using the media conditions described above, and passages 2–10 were used for all cell lines. Cell numbers of 2.5×10^3 cells/well (100 μL) were used for both HUVECs and HMVECs, and 1.5×10^3 cells/well (100 μL) were used for other cell lines in this assay. All cells were allowed to attach for 24 h after plating. Cells were treated with fresh media the next day, before the addition of peptides and then incubated for 72 h. Similar peptide concentrations to those mentioned above (in the cell cytotoxicity section) were used. 0.1% (v/v) Triton X-100 (10 μL) was used as a positive control. After 72 h of incubation, MTT and DMSO were added and analysed using the same method as described above.

[4] = test system: PC3 cells (prostate cancer cells); assay: Cell proliferation assay (MTT, 72 h); assay type: cell-based; conditions: PC-3; 72-h period
Description: as §1

[5] = test system: Human red blood cells; assay: Hemolytic assay; assay type: cell-based; conditions: peptides 0.01–50 μM; melittin positive control from 20 μM
Description: Human red blood cells were used to measure the hemolysis of all peptides, with melittin used as a positive control. Peptides concentrations were 50 μM, 25 μM, 10 μM, 5 μM, 1 μM, 0.5 μM, 0.1 μM and 0.01 μM. Melittin was tested at eight concentrations, with two-fold dilution from a concentration of 20 μM. Sample absorbance was measured at 415 nm using a BioTek PowerWave XS instrument, as described previously. Experiments were done in triplicate.

[6] = test system: HMVECs; set-up: method as in PMID 15716381; conditions: at 5 nM; cited from earlier work
[7] = test system: HUVECs; set-up: method as in PMID 15716381; conditions: at 16 nM; cited from earlier work

Molecule: CC[C@@H](C)[C@H]1NC(=O)[C@H](C(C)C)NC(=O)CNC(=O)[C@@H]2CSSC[C@H](NC(=O)[C@H](CCCNC(=N)N)NC(=O)[C@H]([C@@H](C)CC)NC(=O)[C@H](CCCNC(=N)N)NC(=O)[C@H]([C@@H](C)O)NC1=O)C(=O)N[C@@H]([C@@H](C)O)C(=O)N[C@@H](CCCCN)C(=O)N[C@@H](CO)C(=O)N[C@@H]([C@@H](C)CC)C(=O)N1CCC[C@H]1C(=O)N1CCC[C@H]1C(=O)N[C@@H]([C@@H](C)CC)C(=O)N2 [SFTI-TSP-1, CTKSIPPICGViTRIR]
- remaining at 24 h, 300 μM [1]: > 50%

Molecule: Momordica cochinchinensis trypsin inhibitor-II [MCoTI-II]
- effect on invasive cell migration [2]: inhibited invasive cell migration
- anti-proliferative effect [3]: minor anti-proliferative effects
- anti-proliferative effect [4]: minor anti-proliferative effects

Molecule: CC[C@H](C)[C@H](NC(=O)CN)C(=O)NCC(=O)N[C@@H](C)C(=O)N[C@H](C(=O)N[C@@H](CC(C)C)C(=O)N[C@@H](CCCCN)C(=O)N[C@H](C(=O)N[C@@H](CC(C)C)C(=O)N[C@H](C(=O)N[C@H](C(=O)NCC(=O)N[C@@H](CC(C)C)C(=O)N1CCC[C@H]1C(=O)N[C@@H](C)C(=O)N[C@@H](CC(C)C)C(=O)N[C@H](C(=O)N[C@@H](CO)C(=O)N[C@@H](Cc1c[nH]c2ccccc12)C(=O)N[C@H](C(=O)N[C@@H](CCCCN)C(=O)N[C@@H](CCCNC(=N)N)C(=O)N[C@@H](CCCCN)C(=O)N[C@@H](CCCNC(=N)N)C(=O)N[C@@H](CCC(N)=O)C(=O)N[C@@H](CCC(N)=O)C(N)=O)[C@@H](C)CC)[C@@H](C)CC)[C@@H](C)O)[C@@H](C)O)C(C)C)C(C)C [melittin]
- haemolysis of human red blood cells [5]: highly haemolytic

Molecule: CC[C@@H](C)[C@@H](NC(=O)[C@@H](NC(=O)CN)C(C)C)C(=O)N[C@H](C(=O)N[C@@H](CCCNC(=N)N)C(=O)N[C@H](C(=O)N[C@@H](CCCNC(=N)N)C(=O)O)[C@@H](C)CC)[C@@H](C)O [linear TSP-1 heptapeptide, GViTRIR] (H-GV[dI]TRIR-OH)
- time within which degraded in human serum [1]: ≤ 24 h

Molecule: thrombospondin-1 type-1 repeats [TSR]
- inhibition on HMVECs (migration) [6]: 35%
- inhibition on HUVECs (migration) [7]: 60%

Molecule: CC[C@@H](C)[C@H]1NC(=O)[C@H](C(C)C)NC(=O)CNC(=O)[C@@H]2CSSC[C@@H]3NC(=O)[C@H](CC(=O)O)NC(=O)[C@H](CO)NC(=O)[C@H](CC(=O)O)NC(=O)[C@H](CCCNC(=N)N)NC(=O)[C@H](CCCNC(=N)N)NC(=O)[C@@H]4CSSC[C@H](NC(=O)[C@H]([C@@H](C)CC)NC(=O)[C@H](CSSC[C@H](NC(=O)[C@H](CCCNC(=N)N)NC(=O)[C@H]([C@@H](C)CC)NC(=O)[C@H](CCCNC(=N)N)NC(=O)[C@H]([C@@H](C)O)NC1=O)C(=O)N1CCC[C@H]1C(=O)N[C@@H](CCCCN)C(=O)N[C@@H]([C@@H](C)CC)C(=O)N[C@@H](CC(C)C)C(=O)N[C@@H](CCCCN)C(=O)N[C@@H](CCCCN)C(=O)N4)NC(=O)[C@H](C)NC(=O)CNC(=O)[C@@H]1CCCN1C3=O)C(=O)N[C@@H](CCCNC(=N)N)C(=O)NCC(=O)N[C@@H](CC(N)=O)C(=O)NCC(=O)N[C@@H](Cc1ccc(O)cc1)C(=O)N2 [MCo-TSP-1] (cyclo(ACICRGNGYCGV[dI]TRIRCPKILKKCRRDSDCPG); disulfide 2-18, 4-25, 10-31)
- remaining at 24 h, 300 μM [1]: > 50%

Molecule: sunflower trypsin inhibitor-1 [SFTI-1]
- anti-proliferative effect [3]: minor anti-proliferative effects
- anti-proliferative effect [4]: minor anti-proliferative effects
